Data on four molecules can be found in publication PMC5564600 (Oncotarget, 2017).

Read-outs that look alike come from different tables or passages of the source.

Common to all, as to experiment: biochemical
What all share (format): binding

Test [1] has as its target T1, panel of 442 kinases (Homo sapiens, UniProt O95835).
T1 construct: purchased Ambit Biosciences (scanMAXX KINOMEscan)
T1 sequence (O95835 1-1130): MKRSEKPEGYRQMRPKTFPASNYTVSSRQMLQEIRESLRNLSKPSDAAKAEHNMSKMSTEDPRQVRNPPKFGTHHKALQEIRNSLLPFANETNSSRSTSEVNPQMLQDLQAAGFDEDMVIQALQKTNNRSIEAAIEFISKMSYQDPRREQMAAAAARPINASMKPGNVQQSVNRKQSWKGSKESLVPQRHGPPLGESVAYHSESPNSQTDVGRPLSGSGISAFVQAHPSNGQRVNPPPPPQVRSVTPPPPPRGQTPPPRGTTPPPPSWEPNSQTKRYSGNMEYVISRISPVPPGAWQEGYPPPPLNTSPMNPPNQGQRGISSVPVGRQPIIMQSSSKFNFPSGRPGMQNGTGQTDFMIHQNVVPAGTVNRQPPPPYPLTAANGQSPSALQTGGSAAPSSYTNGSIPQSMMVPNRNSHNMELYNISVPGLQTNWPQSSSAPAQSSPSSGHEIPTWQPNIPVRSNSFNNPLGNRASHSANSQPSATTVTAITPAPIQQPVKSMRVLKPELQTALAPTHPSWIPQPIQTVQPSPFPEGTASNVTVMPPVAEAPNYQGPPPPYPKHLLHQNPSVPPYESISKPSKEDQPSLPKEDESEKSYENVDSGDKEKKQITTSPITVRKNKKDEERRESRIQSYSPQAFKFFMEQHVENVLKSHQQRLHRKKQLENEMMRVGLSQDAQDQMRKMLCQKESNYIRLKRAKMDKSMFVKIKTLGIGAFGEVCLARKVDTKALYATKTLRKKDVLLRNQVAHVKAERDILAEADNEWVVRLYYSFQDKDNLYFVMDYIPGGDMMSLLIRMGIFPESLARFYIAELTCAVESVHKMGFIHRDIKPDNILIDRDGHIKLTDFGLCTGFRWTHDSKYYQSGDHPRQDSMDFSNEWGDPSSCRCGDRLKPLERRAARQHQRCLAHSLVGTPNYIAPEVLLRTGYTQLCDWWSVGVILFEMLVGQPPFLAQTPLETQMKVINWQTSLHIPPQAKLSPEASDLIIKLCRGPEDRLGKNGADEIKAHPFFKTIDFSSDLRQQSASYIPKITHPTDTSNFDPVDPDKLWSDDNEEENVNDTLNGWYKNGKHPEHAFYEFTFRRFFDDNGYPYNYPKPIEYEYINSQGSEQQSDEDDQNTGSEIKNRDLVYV
The conditions noted are these: kinase LATS1; for remaining activity at 1 µM: read-out: % of control at 1 µM.

Test [2] addresses T2, panel of 442 kinases (Homo sapiens, UniProt Q15349).
T2 construct: purchased Ambit Biosciences (scanMAXX KINOMEscan)

In test [3] the target is T3, panel of 442 kinases (Homo sapiens, UniProt P27361).
T3 construct: purchased Ambit Biosciences (scanMAXX KINOMEscan)
The conditions noted are these: ERK1; for remaining activity at 1 µM: read-out: % of control at 1 µM.

The target of test [4] is T4, panel of 442 kinases (Homo sapiens, UniProt P29376).
T4 construct: purchased Ambit Biosciences (scanMAXX KINOMEscan)
The conditions noted are these: kinase LTK; for remaining activity at 1 µM: read-out: % of control at 1 µM.

Test [5] has as its target T5, panel of 442 kinases (Homo sapiens, UniProt P11362).
T5 construct: purchased Ambit Biosciences (scanMAXX KINOMEscan)
The conditions noted are these: FGFR1; for remaining activity at 1 µM: read-out: % of control at 1 µM.

For test [6], the target named is T6, panel of 442 kinases (Homo sapiens, UniProt P29317).
T6 construct: purchased Ambit Biosciences (scanMAXX KINOMEscan)
The conditions noted are these: EPHA2; for remaining activity at 1 µM: read-out: % of control at 1 µM.

The target in test [7] is T7, panel of 442 kinases (Homo sapiens, UniProt P08631).
T7 construct: purchased Ambit Biosciences (scanMAXX KINOMEscan)
The conditions noted are these: kinase HCK; for remaining activity at 1 µM: read-out: % of control at 1 µM.

The target of test [8] is T8, panel of 442 kinases (Homo sapiens, UniProt P50613).
T8 construct: purchased Ambit Biosciences (scanMAXX KINOMEscan)
The conditions noted are these: CDK7; for remaining activity at 1 µM: read-out: % of control at 1 µM.

Test [9] addresses T9, panel of 442 kinases (Homo sapiens, UniProt P10721).
T9 construct: purchased Ambit Biosciences (scanMAXX KINOMEscan)
The conditions noted are these: kinase KIT; for remaining activity at 1 µM: read-out: % of control at 1 µM.

Test [10] deals with T10, panel of 442 kinases (Homo sapiens, UniProt Q6DT37).
T10 construct: purchased Ambit Biosciences (scanMAXX KINOMEscan)
The conditions noted are these: DMPK2; for remaining activity at 1 µM: read-out: % of control at 1 µM.

The target of test [11] is T11, panel of 442 kinases (Homo sapiens, UniProt P21127).
T11 construct: purchased Ambit Biosciences (scanMAXX KINOMEscan)
The conditions noted are these: CDC2L1; for remaining activity at 1 µM: read-out: % of control at 1 µM.

The target of test [12] is T12, panel of 442 kinases (Homo sapiens, UniProt Q15746).
T12 construct: purchased Ambit Biosciences (scanMAXX KINOMEscan)
The conditions noted are these: kinase MYLK; for remaining activity at 1 µM: read-out: % of control at 1 µM.

Test [13] has as its target T13, panel of 442 kinases (Homo sapiens, UniProt Q8IU85).
T13 construct: purchased Ambit Biosciences (scanMAXX KINOMEscan)
The conditions noted are these: CAMK1D; for remaining activity at 1 µM: read-out: % of control at 1 µM.

Test [14] addresses T14, panel of 442 kinases (Homo sapiens, UniProt Q8TD08).
T14 construct: purchased Ambit Biosciences (scanMAXX KINOMEscan)
T14 sequence (Q8TD08 1-544): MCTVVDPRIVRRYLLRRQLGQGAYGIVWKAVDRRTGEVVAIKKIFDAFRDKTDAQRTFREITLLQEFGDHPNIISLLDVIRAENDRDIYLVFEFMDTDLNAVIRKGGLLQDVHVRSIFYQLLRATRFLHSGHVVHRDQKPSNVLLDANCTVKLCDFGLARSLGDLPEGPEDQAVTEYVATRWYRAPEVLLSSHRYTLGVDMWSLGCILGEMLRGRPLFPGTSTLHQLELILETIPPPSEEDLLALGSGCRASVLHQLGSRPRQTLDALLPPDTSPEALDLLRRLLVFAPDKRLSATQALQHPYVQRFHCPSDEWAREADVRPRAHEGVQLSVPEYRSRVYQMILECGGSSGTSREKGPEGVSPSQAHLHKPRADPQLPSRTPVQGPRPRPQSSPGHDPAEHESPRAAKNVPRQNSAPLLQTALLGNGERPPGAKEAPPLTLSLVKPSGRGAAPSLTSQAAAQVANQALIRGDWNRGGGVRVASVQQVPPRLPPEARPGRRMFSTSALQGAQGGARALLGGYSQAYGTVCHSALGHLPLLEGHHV
The conditions noted are these: ERK8; for remaining activity at 1 µM: read-out: % of control at 1 µM.

Where [15] appears, read: kinase RSK3(Kin.Dom.1-N-terminal), read-out: RSK3(Kin.Dom.1-N-terminal) (% of control at 1 µM).
The mark [16] stands for this setting: kinase RSK3(Kin.Dom.2-C-terminal), read-out: RSK3(Kin.Dom.2-C-terminal) (% of control at 1 µM).
[17] abbreviates: 10 µM, read-out: % of control at 10 µM.

T13 sequence (Q8IU85 whole entry): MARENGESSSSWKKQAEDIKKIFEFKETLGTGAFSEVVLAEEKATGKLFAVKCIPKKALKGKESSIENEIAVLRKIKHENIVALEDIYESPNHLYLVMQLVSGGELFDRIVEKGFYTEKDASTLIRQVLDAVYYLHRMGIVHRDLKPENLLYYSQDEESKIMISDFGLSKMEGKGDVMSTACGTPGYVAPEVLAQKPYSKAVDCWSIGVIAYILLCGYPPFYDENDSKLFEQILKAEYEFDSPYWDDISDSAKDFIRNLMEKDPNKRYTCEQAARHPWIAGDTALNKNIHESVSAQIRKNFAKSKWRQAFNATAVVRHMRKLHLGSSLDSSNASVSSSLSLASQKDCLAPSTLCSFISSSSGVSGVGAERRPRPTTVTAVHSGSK
T10 sequence (Q6DT37 whole entry): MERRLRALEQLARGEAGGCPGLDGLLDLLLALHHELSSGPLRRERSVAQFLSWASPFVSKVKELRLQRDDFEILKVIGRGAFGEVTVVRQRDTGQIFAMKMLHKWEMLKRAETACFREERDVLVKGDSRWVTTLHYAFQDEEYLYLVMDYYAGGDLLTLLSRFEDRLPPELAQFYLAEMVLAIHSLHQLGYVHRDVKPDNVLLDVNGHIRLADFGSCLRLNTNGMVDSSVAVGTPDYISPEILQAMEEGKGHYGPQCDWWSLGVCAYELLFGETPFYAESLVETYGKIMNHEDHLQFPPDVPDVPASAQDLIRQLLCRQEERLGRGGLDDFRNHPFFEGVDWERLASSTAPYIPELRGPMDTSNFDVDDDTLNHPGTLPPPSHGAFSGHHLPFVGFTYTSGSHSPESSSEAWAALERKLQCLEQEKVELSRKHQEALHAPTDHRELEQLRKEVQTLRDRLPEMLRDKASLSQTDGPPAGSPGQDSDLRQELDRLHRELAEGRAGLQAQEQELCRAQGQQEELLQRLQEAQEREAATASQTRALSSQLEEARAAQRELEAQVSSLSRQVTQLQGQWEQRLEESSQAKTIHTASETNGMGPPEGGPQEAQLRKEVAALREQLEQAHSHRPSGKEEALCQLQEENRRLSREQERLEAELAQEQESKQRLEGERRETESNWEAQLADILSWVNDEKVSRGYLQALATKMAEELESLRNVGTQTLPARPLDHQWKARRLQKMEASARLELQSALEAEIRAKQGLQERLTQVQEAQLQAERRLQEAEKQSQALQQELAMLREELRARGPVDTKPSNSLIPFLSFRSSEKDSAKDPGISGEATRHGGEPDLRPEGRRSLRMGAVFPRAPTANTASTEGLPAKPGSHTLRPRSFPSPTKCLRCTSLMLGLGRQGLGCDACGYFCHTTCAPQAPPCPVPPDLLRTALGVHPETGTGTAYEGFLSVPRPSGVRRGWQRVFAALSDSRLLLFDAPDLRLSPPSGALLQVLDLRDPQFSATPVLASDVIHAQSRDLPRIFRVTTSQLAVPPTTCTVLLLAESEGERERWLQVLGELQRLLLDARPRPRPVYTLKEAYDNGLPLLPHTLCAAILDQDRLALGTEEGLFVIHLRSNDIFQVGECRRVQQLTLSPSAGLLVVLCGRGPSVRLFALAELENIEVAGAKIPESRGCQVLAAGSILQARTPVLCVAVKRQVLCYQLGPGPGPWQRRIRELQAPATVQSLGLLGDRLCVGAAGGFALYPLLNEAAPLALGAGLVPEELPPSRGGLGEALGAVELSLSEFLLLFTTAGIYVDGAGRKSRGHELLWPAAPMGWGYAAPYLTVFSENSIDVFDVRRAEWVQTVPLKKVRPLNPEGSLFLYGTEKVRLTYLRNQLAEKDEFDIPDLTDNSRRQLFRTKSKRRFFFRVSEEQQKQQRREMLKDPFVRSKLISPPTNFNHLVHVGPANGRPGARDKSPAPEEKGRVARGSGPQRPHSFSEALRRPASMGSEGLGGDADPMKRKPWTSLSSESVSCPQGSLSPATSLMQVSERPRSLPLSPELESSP
T12 sequence (Q15746 whole entry): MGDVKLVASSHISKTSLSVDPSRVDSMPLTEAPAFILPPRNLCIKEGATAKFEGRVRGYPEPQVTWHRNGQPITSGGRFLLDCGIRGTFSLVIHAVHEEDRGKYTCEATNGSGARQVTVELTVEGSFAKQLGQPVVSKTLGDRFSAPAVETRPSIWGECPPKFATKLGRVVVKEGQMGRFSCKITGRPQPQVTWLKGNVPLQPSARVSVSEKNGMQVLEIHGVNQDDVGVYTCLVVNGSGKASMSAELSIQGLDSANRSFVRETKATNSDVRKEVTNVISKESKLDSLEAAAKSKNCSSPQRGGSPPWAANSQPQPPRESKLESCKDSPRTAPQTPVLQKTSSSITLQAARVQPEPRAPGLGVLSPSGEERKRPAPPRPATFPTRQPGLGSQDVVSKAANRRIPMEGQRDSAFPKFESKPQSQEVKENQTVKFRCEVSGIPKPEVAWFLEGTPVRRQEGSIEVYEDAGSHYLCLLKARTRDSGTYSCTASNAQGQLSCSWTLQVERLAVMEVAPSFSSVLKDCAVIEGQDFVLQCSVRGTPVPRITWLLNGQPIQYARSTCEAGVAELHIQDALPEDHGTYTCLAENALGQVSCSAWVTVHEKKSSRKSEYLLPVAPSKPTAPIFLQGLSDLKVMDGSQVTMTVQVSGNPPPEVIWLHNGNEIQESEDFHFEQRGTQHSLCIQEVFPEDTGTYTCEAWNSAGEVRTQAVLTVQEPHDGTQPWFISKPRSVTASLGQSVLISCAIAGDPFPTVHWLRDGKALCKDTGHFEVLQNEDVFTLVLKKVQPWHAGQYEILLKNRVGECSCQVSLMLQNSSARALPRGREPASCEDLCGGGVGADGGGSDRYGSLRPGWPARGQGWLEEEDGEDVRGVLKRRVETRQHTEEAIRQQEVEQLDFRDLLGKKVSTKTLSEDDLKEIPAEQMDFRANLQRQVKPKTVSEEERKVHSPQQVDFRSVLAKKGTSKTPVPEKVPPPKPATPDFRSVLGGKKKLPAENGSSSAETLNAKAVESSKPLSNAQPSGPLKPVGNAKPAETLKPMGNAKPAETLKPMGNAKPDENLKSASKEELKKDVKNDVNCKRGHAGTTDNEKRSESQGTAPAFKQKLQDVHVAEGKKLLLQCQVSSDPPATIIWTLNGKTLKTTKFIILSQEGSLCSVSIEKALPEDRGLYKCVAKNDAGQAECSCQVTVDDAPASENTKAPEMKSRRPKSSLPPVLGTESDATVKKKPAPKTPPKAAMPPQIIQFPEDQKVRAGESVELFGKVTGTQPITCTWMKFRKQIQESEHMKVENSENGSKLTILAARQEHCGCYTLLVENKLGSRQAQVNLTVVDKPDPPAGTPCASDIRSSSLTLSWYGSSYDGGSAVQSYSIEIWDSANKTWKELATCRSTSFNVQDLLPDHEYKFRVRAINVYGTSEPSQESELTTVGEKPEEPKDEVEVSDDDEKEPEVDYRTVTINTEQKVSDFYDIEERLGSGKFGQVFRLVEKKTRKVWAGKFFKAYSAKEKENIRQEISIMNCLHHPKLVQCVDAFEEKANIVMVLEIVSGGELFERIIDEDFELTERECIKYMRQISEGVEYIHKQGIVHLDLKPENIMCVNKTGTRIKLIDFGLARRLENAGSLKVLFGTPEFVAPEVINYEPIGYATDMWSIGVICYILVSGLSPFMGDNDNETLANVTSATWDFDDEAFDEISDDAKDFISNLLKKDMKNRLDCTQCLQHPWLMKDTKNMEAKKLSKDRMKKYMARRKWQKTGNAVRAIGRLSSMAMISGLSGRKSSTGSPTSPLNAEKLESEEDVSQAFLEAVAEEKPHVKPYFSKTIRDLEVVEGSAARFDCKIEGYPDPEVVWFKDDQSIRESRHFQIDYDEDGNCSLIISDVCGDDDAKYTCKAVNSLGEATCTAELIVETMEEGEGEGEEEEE
T2 sequence (Q15349 whole entry): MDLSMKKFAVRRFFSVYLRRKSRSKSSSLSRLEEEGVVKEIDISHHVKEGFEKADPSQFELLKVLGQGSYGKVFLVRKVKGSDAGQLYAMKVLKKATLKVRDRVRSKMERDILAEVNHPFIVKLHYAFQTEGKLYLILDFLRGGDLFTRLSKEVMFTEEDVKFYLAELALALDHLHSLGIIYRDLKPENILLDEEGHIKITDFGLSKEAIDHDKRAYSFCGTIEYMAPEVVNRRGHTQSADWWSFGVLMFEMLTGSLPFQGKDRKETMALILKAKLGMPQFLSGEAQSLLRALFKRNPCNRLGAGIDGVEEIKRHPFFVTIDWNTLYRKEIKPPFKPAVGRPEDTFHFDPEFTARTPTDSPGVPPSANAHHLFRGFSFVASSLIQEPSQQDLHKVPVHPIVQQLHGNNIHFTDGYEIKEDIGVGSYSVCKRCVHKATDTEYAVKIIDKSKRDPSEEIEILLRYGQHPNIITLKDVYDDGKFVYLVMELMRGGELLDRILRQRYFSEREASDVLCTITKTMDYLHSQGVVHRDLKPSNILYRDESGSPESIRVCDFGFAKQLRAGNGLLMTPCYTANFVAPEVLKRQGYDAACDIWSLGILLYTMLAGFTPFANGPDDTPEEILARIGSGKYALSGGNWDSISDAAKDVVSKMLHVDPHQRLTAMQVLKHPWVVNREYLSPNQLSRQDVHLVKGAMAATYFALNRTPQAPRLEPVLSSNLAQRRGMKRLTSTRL
T8 sequence (P50613 whole entry): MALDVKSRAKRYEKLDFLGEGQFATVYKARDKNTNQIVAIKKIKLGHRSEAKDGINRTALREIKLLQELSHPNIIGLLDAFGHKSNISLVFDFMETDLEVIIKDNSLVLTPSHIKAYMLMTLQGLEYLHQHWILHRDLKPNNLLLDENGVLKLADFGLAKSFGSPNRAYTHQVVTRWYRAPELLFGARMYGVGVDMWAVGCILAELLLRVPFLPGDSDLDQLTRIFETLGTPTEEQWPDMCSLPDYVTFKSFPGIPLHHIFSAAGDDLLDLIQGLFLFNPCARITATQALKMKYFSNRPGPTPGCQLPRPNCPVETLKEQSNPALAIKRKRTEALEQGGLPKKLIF

Turning to `COc1ncc(-c2ccc3nccc(-c4ccnnc4)c3c2)cc1NS(=O)(=O)c1ccc(F)cc1F` [Omipalisib], the remaining activity at 1 µM at panel of 442 kinases [1] was found to be 100%; at panel of 442 kinases [2] (setting [15]), 100%; at panel of 442 kinases [2] (setting [16]) it was 100%; on panel of 442 kinases [3], 100%; on panel of 442 kinases [4], 88%; on panel of 442 kinases [5], 94%. In addition, the remaining activity at 1 µM amounted to 100% on panel of 442 kinases [6]; 100% on panel of 442 kinases [7]; 100% on panel of 442 kinases [8]; 100% on panel of 442 kinases [9]; 100% on panel of 442 kinases [10]; 96% at panel of 442 kinases [11]. Moreover, the remaining activity at 1 µM on panel of 442 kinases [12] is 78%; on panel of 442 kinases [13], 87%; on panel of 442 kinases [14], 100%.
Turning to `Cn1c(=O)n(-c2ccc(C(C)(C)C#N)cc2)c2c3cc(-c4cnc5ccccc5c4)ccc3ncc21` [Dactolisib, 2-methyl-2-[4-(3-methyl-2-oxo-8-quinolin-3-yl-2,3-dihydroimidazo[4,5-c]quinolin-1-yl)-phenyl] propionitrile], the remaining activity at 1 µM at panel of 442 kinases [1] is 100%; at panel of 442 kinases [2] (setting [15]), 70%; at panel of 442 kinases [2] (setting [16]), 75%; at panel of 442 kinases [3], 97%; on panel of 442 kinases [4], 23%; on panel of 442 kinases [5] it was 94%. The remaining activity at 1 µM on panel of 442 kinases [6] came to 96%; on panel of 442 kinases [7] it was 94%; on panel of 442 kinases [8] it was 57%; on panel of 442 kinases [9] it was 63%; on panel of 442 kinases [10], 81%; on panel of 442 kinases [11], 100%. In addition, the results for the remaining activity at 1 µM at panel of 442 kinases [12], at panel of 442 kinases [13] and at panel of 442 kinases [14] were 100%, 87% and 86%, respectively.
Turning to `Nc1cc(C(F)(F)F)c(-c2cc(N3CCOCC3)nc(N3CCOCC3)n2)cn1` [Buparlisib], the remaining activity at 1 µM was 71% at panel of 442 kinases [1]; 95% on panel of 442 kinases [2] (setting [15]); 100% on panel of 442 kinases [2] (setting [16]); 92% on panel of 442 kinases [3]; 99% on panel of 442 kinases [4]; 100% on panel of 442 kinases [5]. Also, the remaining activity at 1 µM on panel of 442 kinases [6] is 100%; on panel of 442 kinases [7] it was 100%; on panel of 442 kinases [8] it was 93%; at panel of 442 kinases [9], 89%; on panel of 442 kinases [10] it was 100%; on panel of 442 kinases [11] it was 85%. The remaining activity at 1 µM at panel of 442 kinases [12] was found to be 99%; on panel of 442 kinases [13], 100%; at panel of 442 kinases [14], 100%. The remaining activity at 10 µM at panel of 442 kinases [1] (setting [17]) turned out to be 100%; on panel of 442 kinases [2] (kinase RSK3(Kin.Dom.1-N-terminal), read-out: RSK3(Kin.Dom.1-N-terminal) (% of control at 10 µM)) it was 100%; on panel of 442 kinases [2] (kinase RSK3(Kin.Dom.2-C-terminal), read-out: RSK3(Kin.Dom.2-C-terminal) (% of control at 10 µM)), 100%; at panel of 442 kinases [3] (setting [17]), 100%; on panel of 442 kinases [4] (setting [17]) it was 100%; at panel of 442 kinases [5] (setting [17]) it was 100%. The remaining activity at 10 µM at panel of 442 kinases [6] (setting [17]) came to 100%; at panel of 442 kinases [7] (setting [17]) it was 100%; on panel of 442 kinases [8] (setting [17]), 100%; at panel of 442 kinases [9] (setting [17]) it was 66%; at panel of 442 kinases [10] (setting [17]) it was 100%; at panel of 442 kinases [11] (setting [17]), 92%. Moreover, the figures for the remaining activity at 10 µM at panel of 442 kinases [12] (setting [17]), on panel of 442 kinases [13] (setting [17]) and on panel of 442 kinases [14] (setting [17]) were 92%, 100% and 100%, respectively.
As to `FC(F)c1nc2ccccc2n1-c1nc(N2CCOCC2)nc(N2CCOCC2)n1` [ZSTK474, 2-(difluoromethyl)-1-[4,6-di(4-morpholinyl)-1,3,5-triazin-2-yl]-1H-benzimidazole], the remaining activity at 1 µM at panel of 442 kinases [1] turned out to be 90%; on panel of 442 kinases [2] (setting [15]) it was 100%; at panel of 442 kinases [2] (setting [16]), 100%; at panel of 442 kinases [3] it was 100%; on panel of 442 kinases [4], 72%; at panel of 442 kinases [5], 100%. Moreover, the remaining activity at 1 µM was found to be 100% at panel of 442 kinases [6]; 100% at panel of 442 kinases [7]; 68% on panel of 442 kinases [8]; 85% at panel of 442 kinases [9]; 88% at panel of 442 kinases [10]; 88% on panel of 442 kinases [11]. The remaining activity at 1 µM on panel of 442 kinases [12], on panel of 442 kinases [13] and at panel of 442 kinases [14] was 100% in each case.
